From patent US20070238649A1, “Agents for Regulating Adiponectin Receptor Expression” (priority 2004, published 2007)

Experiments:
[1] = Plasma insulin and plasma glucose in STZ-treated mice without or with insulin; assay type: in vivo
Text: Animals Fifteen-week-old ob/ob mice and their wild-type C57BL/6 mice were obtained from CharlesRiver Breeding Laboratories (Wilmington, Mass.). Male mice were housed in colony cages, maintained on a 12-h light/12-h dark cycle. Our high-fat diet contains oil 1152 g (from Benibana, Japan; safflower oil [high-oleic type] contained 46% oleic acid (18:1n-9) and 45% linoleic acid (18:2n-6) from total fatty acids), casein 1191.6 g (Oriental Yeast, Tokyo, Japan, No.19), sucrose 633.6 g (Oriental Yeast, No. 13), vitamin mix 50.4 g (Oriental Yeast, No. 20 (AIN76), mineral mix 352.8 g (Oriental Yeast, No.25 (AIN76), cellulose powder 201.6 g (Oriental Yeast, No.19), DL-methionine 18 g (Wako Pure Chemicals, Osaka, Japan), water 360 ml; total 3600 g (20). Plasma insulin was measured by an insulin immunoassay (Shibayagi, Gunma, Japan). The animal care and procedures were approved by the Animal Care Committee of the University of Tokyo.
(§1) STZ Treatments Diabetes was induced by a double intraperitoneal injection of 0.2-0.3 ml of 50 mM sodium citrate solution (pH 4.5) containing STZ (200 mg/kg body weight). Control (non-STZ) mice were injected with 50 mM sodium citrate solution (pH 4.5). Three days after injection, plasma glucose levels were checked and diabetes was confirmed (glucose level >250 mg/dl). A combination of human regular insulin (1 units/kg; Eli Lilly, Indianapolis, Ind.), each given in 0.2 ml of saline was administered to the STZ+ insulin group. The mice in the STZ+ vehicle and non-STZ groups received 0.2 ml of saline injected both intraperitoneally. After injection of INS or saline, the animals were fasted for 6 h and then hindlim's skeletal muscles were removed.

AdipoR1 mRNA = AdipoR1 mRNA in skeletal muscle of STZ-treated mice (real-time PCR); assay type: in vivo; conditions: FIG. 2C
Description: as §1
(§2) Quantitative analysis of AdipoR1 and R2 transcripts by Northern blot and Real-time PCR Total RNA was prepared from cells or tissues with TRIzol (GIBCO/BRL) according to the manufacturer's instructions. For quantification of AdipoRs mRNAs, we employed the real-time PCR method (14). The primer sets and the probes for mAdipoR1,2 were as follows; the forward primer for mAdipoR1 was […], the reverse primer, […] and the probe, […]; the forward primer for mAdipoR2 was […], the reverse primer, […] and the probe, […]. The relative amount of each AdipoR transcript was normalized to the amount of actin transcript in the same cDNA (14).

AdipoR2 mRNA = AdipoR2 mRNA in skeletal muscle of STZ-treated mice (real-time PCR); assay type: in vivo; conditions: FIG. 2D
Description: as §1, §2

[2] = tested on: membrane fractions of skeletal muscle; assay: [125I]adiponectin binding assay on membrane fractions of skeletal muscle; conditions: wild-type vs ob/ob mice; FIGS. 5A, 5B
Description: Binding Assay Synthetic adiponectin was ^125I-labeled at Tyr by IODO-beads (Pierce) in the presence of Na^125I (2,000 Ci/mmol, Amersham Pharmacia Biotech) according to the manufacturer's protocol. Membrane fractions of muscles were incubated at 4° C. for 1 hr with binding buffer (ice-cold phosphate-buffered saline/0.1% bovine serum albumin) containing designated concentrations of [^125I]adiponectin (5,000 cpm/ng protein) plus unlabeled competitors. […] The cells were then washed three times with ice-cold phosphate-buffered saline, lysed in 0.1 N NaOH/0.1% SDS, and the cell-bound radioactivity was determined using a γ-counter (14). Nonspecific binding was determined using a 200-fold excess of unlabeled adiponectin. Specific binding was calculated by subtracting nonspecific binding from the total binding. The values presented in the “Results” represent an average of triplicate determinations of 3-10 experiments.

AMPK = assay: Adiponectin tolerance test: AMPK phosphorylation in skeletal muscle (Western blot); assay type: in vivo, mice; conditions: 50 μg/10 g body weight, 5 min, FIGS. 5C, 5D
Description: Generation of recombinant adiponectin, adiponectin tolerance test and Western blot analysis Bacterially expressed murine full-length adiponectin (Ad) was generated as previously described (10, 14). […] Skeletal muscles were isolated 5 min after adiponectin injection. Phosphorylation and amount of AMPK in keletal muscles were determined (10, 14).

[3] = skeletal muscle of STZ-treated mice
[4] = skeletal muscle, STZ-treated mice given insulin

Molecule: CN(N=O)C(=O)N[C@H]1C(O)O[C@H](CO)[C@@H](O)[C@@H]1O (mixture of isomers) [STZ, streptozotocin]
- plasma insulin ([1]; STZ 200 mg/kg intraperitoneal, mice fasted 6 h, FIG. 2A): abolished
- plasma glucose ([1]; STZ-treated vs control mice, fasted 6 h, FIG. 2B lanes 1, 2): significant marked increase
- increase in AdipoR1 mRNA (AdipoR1 mRNA; [3]): 103%
- increase in AdipoR2 mRNA (AdipoR2 mRNA; [3]): 38%

Molecule: insulin: human regular insulin (Eli Lilly) in vivo; insulin added to hepatocytes and C2C12 myocytes in vitro
- plasma glucose levels ([1]; STZ plus insulin (1 units/kg) compared with STZ alone, FIG. 2B lanes 2, 3): reduced
- AdipoR1 mRNA after insulin treatment (AdipoR1 mRNA; [4]): restored nearly completely
- AdipoR2 mRNA after insulin treatment (AdipoR2 mRNA; [4]): restored nearly completely

B1: adiponectin: bacterially expressed murine full-length adiponectin; 125I-labeled adiponectin (globular or full-length) in the binding assay (protein)
chain: EDDVTTTEELAPALVPPPKGTCAGWMAGIPGHPGHNGTPGRDGRDGTPGEKGEKGDAGLLGPKGETGDVGMTGAEGPRGFPGTPGRKGEPGEAAYVYRSAFSVGLETRVTVPNVPIRFTKIFYNQQNHYDGSTGKFYCNIPGLYYFSYHITVYMKDVKVSLFKKDKAVLFTYDQYQEKNVDQASGSVLLHLEVGDQVWLQVYGDGDHNGLYADNVNDSTFTGFLLYHDTN
- adiponectin binding to the membrane fractions of skeletal muscle [2]: higher binding to the membrane fractions of skeletal muscle of wild-type mice than ob/ob mice
- AMPK activation in skeletal muscle (AMPK; ob/ob mice (implied)): unable to activate AMPK
- AMPK activation in skeletal muscle (AMPK; wild-type mice): able to activate AMPK
